In ChEMBL document CHEMBL5724696, “Autophagy assay results for EUbOPEN Chemogenomics Library” (2024):

Legend:
Format in all cases: functional, Homo sapiens
U2OS [1] = test: (§1) Here: values are normalized to the negative (DMSO; defined as 0% autophagy induction) and positive (250nM Torin1; mTOR inhibitor; defined as maximal inducer of autophagy = 100%) control compounds and represented as % of autophagy induction. […] The impact of autophagy induction on cells is complex and depends on the affected target. As such, the magnitude of a phenotype may not be equally mirrored in the %-value of autophagy induction and vice versa. The dynamics of the induction may indicate the mode of activation: e.g. activation via phosphorylation or a signaling cascade may occur fast, while activation via transcription factors may take considerably longer. […] Of note, treatment concentrations may be sub-optimal for specific compounds, leading to false negative annotations.; settings: Culturing Media DMEM, 1 % Penicillin/Streptomycin, 10% Fetal bovin serum Add-On: No, Screening Media Control DMEM, Screening Media Samples DMEM
U2OS [2] = test: as §1; settings: Culturing Media DMEM, 1 % Penicillin/Streptomycin, 10% Fetal bovin serum Add-On: No, Screening Media Control DMEM, Screening Media Samples DMEM; remark: listed apart in the source
TERT-RPE1 = test: as §1; settings: Culturing Media DMEM/F12 (1:1), 1 % Penicillin/Streptomycin, 10% Fetal bovin serum Add-On: No, Screening Media Control DMEM/F12 (1:1), Screening Media Samples DMEM/F12 (1:1)
[3] = Compound Concentration 0.5 uM, Timepoint 12 hours
[4] = Compound Concentration 0.5 uM, Timepoint 24 hours
[5] = Compound Concentration 0.5 uM, Timepoint 36 hours
[6] = Compound Concentration 0.5 uM, Timepoint 60 hours
[7] = Compound Concentration 2 uM, Timepoint 12 hours
[8] = Compound Concentration 2 uM, Timepoint 24 hours
[9] = Compound Concentration 2 uM, Timepoint 36 hours
[10] = Compound Concentration 2 uM, Timepoint 60 hours
[11] = Compound Concentration 10 uM, Timepoint 12 hours
[12] = Compound Concentration 10 uM, Timepoint 24 hours
[13] = Compound Concentration 10 uM, Timepoint 36 hours
[14] = Compound Concentration 10 uM, Timepoint 60 hours

Work on CC(C)NCC(O)c1ccc(N)c(C#N)c1 (configuration not stated) [CIMATEROL] yielded an autophagy induction (U2OS [1]; [3]) of 3.679%, an autophagy induction (U2OS [1]; [4]) of -3.232% and an autophagy induction (U2OS [1]; [5]) of -4.651%. The autophagy induction (U2OS [1]; [6]) was -4.997%, the autophagy induction (U2OS [1]; [7]) was 6.803% and the autophagy induction (U2OS [1]; [8]) was -0.3028%. The autophagy induction (U2OS [1]; [9]) was -4.0163%, the autophagy induction (U2OS [1]; [10]) was -10.3459% and the autophagy induction (U2OS [1]; [11]) was 5.959%. It also gave an autophagy induction (U2OS [1]; [12]) of -4.01%, an autophagy induction (U2OS [1]; [13]) of -7.491% and an autophagy induction (U2OS [1]; [14]) of -4.33%. The autophagy induction (U2OS [2]; [3]) was -8.937%, the autophagy induction (U2OS [2]; [4]) was -2.541% and the autophagy induction (U2OS [2]; [5]) was -0.28%. The autophagy induction (U2OS [2]; [6]) was 0.09617%, the autophagy induction (U2OS [2]; [7]) was -0.2215% and the autophagy induction (U2OS [2]; [8]) was -0.03889%. For the same compound, the autophagy induction (U2OS [2]; [9]) was 0.3661%, the autophagy induction (U2OS [2]; [10]) was 0.1358% and the autophagy induction (U2OS [2]; [11]) was 14.0499%. The autophagy induction (U2OS [2]; [12]) was 5.045%, the autophagy induction (U2OS [2]; [13]) was 2.283% and the autophagy induction (U2OS [2]; [14]) was 0.5754%. It also gave an autophagy induction (TERT-RPE1; [3]) of 2.2717%, an autophagy induction (TERT-RPE1; [4]) of -0.618% and an autophagy induction (TERT-RPE1; [5]) of -7.669%. For the same compound, the autophagy induction (TERT-RPE1; [6]) was -22.0747%, the autophagy induction (TERT-RPE1; [7]) was 9.171% and the autophagy induction (TERT-RPE1; [8]) was 5.1156%. The autophagy induction (TERT-RPE1; [9]) was 0.3735%, the autophagy induction (TERT-RPE1; [10]) was -11.1579% and the autophagy induction (TERT-RPE1; [11]) was 13.5821%. It also gave an autophagy induction (TERT-RPE1; [12]) of 11.7661%, an autophagy induction (TERT-RPE1; [13]) of 4.317% and an autophagy induction (TERT-RPE1; [14]) of -0.2093%.

In the case of COc1ccccc1CN[C@H]1C2CCN(CC2)[C@H]1C(c1ccccc1)c1ccccc1 [CP-96345], the autophagy induction (U2OS [1]; [3]) is reported as -3.495%, the autophagy induction (U2OS [1]; [4]) is reported as -5.808% and the autophagy induction (U2OS [1]; [5]) is reported as -2.326%. For the same compound, the autophagy induction (U2OS [1]; [6]) was -4.4745%, the autophagy induction (U2OS [1]; [7]) was 5.091% and the autophagy induction (U2OS [1]; [8]) was 1.613%. It also gave an autophagy induction (U2OS [1]; [9]) of -0.5186%, an autophagy induction (U2OS [1]; [10]) of 0.7913% and an autophagy induction (U2OS [1]; [11]) of 26.1721%. The autophagy induction (U2OS [1]; [12]) was 19.1804%, the autophagy induction (U2OS [1]; [13]) was 19.6555% and the autophagy induction (U2OS [1]; [14]) was 18.5295%. It also gave an autophagy induction (U2OS [2]; [3]) of 8.36%, an autophagy induction (U2OS [2]; [4]) of 2.83% and an autophagy induction (U2OS [2]; [5]) of 0.2431%. For the same compound, the autophagy induction (U2OS [2]; [6]) was 0.5109%, the autophagy induction (U2OS [2]; [7]) was -21.7864% and the autophagy induction (U2OS [2]; [8]) was -9.531%. It also gave an autophagy induction (U2OS [2]; [9]) of -7.223%, an autophagy induction (U2OS [2]; [10]) of -5.938% and an autophagy induction (U2OS [2]; [11]) of -2.456%. For the same compound, the autophagy induction (U2OS [2]; [12]) was -0.4585%, the autophagy induction (U2OS [2]; [13]) was -0.2201% and the autophagy induction (U2OS [2]; [14]) was -2.05%. The autophagy induction (TERT-RPE1; [3]) was -7.147%, the autophagy induction (TERT-RPE1; [4]) was -11.4989% and the autophagy induction (TERT-RPE1; [5]) was -14.454%. The autophagy induction (TERT-RPE1; [6]) was -21.453%, the autophagy induction (TERT-RPE1; [7]) was -6.616% and the autophagy induction (TERT-RPE1; [8]) was -10.9647%. For the same compound, the autophagy induction (TERT-RPE1; [9]) was -14.8934%, the autophagy induction (TERT-RPE1; [10]) was -18.8514% and the autophagy induction (TERT-RPE1; [11]) was 2.262%. For the same compound, the autophagy induction (TERT-RPE1; [12]) was 3.387%, the autophagy induction (TERT-RPE1; [13]) was 7.76% and the autophagy induction (TERT-RPE1; [14]) was 2.279%.
